# Source: PMC9689838, “Screening and Identification of Novel Soluble Epoxide Hydrolase Inhibitors from Corn Gluten Peptides” (Foods, 2022)
# Where two headings read alike, the source gives them in different places. Where a SMILES comes first, the peptide text is derived from it.
# Legend:
# [1] = molecular target: T1, Human soluble epoxide hydrolase (sEH) (Homo sapiens, UniProt P34913); assay: sEH inhibitory activity assay with fluorescent substrate PHOME; type: biochemical; settings: 10 µM PHOME, 40 min, mean ± SD n = 3; for inhibition at 100 µM: peptide 100 µM final, 62.5 ng/mL sEH, 37 °C; for IC50: synthesized peptides 20-100 µM
# T1 construct: purchased Cayman Chemical (Ann Arbor, MI, USA)
# T1 sequence (P34913 1-555): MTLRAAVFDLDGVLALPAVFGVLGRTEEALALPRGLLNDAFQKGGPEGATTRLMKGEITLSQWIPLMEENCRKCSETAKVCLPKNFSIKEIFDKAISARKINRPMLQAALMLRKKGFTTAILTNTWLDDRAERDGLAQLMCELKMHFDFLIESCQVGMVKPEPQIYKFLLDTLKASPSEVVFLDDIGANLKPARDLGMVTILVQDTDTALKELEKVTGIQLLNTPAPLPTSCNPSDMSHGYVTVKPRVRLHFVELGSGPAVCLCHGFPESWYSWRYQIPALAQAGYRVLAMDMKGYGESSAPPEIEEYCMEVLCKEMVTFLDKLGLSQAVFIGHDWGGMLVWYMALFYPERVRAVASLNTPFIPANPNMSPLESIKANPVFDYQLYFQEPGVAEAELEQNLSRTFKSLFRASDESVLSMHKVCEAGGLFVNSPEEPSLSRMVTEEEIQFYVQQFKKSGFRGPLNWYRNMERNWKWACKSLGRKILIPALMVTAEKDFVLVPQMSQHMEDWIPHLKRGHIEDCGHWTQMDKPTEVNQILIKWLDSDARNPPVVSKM
# Protocol: The effects of the concentrations of the enzyme, substrate, and the hydrolysis time of sEH on PHOME were determined according to the methods reported previously. […] After incubating at 37 °C for 5 to 50 min, the fluorescence intensity was measured at an emission wavelength of 465 nm and an excitation wavelength of 330 nm. Bis-Tris-HCl instead of PHOME was used as the blank control. The reaction rate of the system was calculated as follows:(1) The reaction rate (RFU/min)=St - Ct/t where St (RFU) and Ct (RFU) represent the fluorescence intensity of the sample and blank group at t min, respectively. The t (min) represents the reaction time.
# The sEH inhibitory activities of peptides were determined as above described. Briefly, 130 µL of 62.5 ng/mL human sEH solution (final concentrations, dissolved in 25 mM bis-Tris-HCl containing 0.1% BSA, pH 7.0) and 20 µL of peptides (final concentrations: synthesized peptides, 20, 40, 60, 80, and 100 µM; corn gluten peptides, 1, 2, 3, 4, and 5 mg/mL, respectively) were added to 96-well plate followed by adding 50 µL of 10 µM PHOME solution (final concentration, dissolved in 25 mM bis-Tris-HCl containing 0.1% BSA, pH 7.0). After incubating at 37 °C for 5 to 40 min, the fluorescence intensity of the mixture at an emission wavelength of 465 nm and an excitation wavelength of 330 nm was determined. […] The sEH inhibitory activity was calculated as follows:(2) sEH inhibitory activity (%)=C40 - S40/C40 - C0×100% where C40 (RFU) and C0 (RFU) represented the fluorescence intensity of the blank control group at 40 and 0 min, respectively. S40 (RFU) represented the fluorescence intensity of the sample group at 40 min.
# sEH = settings: read-out: IC50, sEH inhibitory activity, cited from earlier work
# [2] = isolated from Capsicum chinense
structure (smiles),measurement,setting,value
N[C@@H](Cc1c[nH]c2ccccc12)C(=O)N[C@@H](Cc1ccc(O)cc1)C(=O)N[C@@H](Cc1c[nH]c2ccccc12)C(=O)O [WYW] (H-Trp-Tyr-Trp-OH),inhibition at 100 µM,[1],60.3 ± 5.6%
same,IC50,[1],70.7 ± 9.9 µM
O=c1c(O)c(-c2ccc(O)c(O)c2)oc2cc(O)cc(O)c12 [quercetin],IC50,sEH,22.5 ± 0.9 µM
CCCCC/C=C/C=C/C(=O)NCC(C)C [pellitorine],IC50,sEH; from Scutellaria baicalensis,93.7 ± 4.52 µM
CC(C)C(=O)Nc1ccc([N+](=O)[O-])c(C(F)(F)F)c1 [flutamide],IC50,sEH; from Scutellaria baicalensis,6.32 ± 0.31 µM
O=c1c(O[C@H]2OC[C@@H](O)[C@@H](O)[C@@H]2O)c(-c2ccc(O)c(O)c2)oc2cc(O)cc(O)c12 [quercetin-3-O-arabinoside],IC50,sEH,39.3 ± 3.4 µM
C[C@H]1[C@H](C)CC[C@]2(C(=O)O)CC[C@]3(C)C(=CC[C@@H]4[C@@]5(C)C[C@@H](O)[C@H](O)C(C)(C)[C@@H]5CC[C@]43C)[C@H]12 [corosolic acid],IC50,sEH,51.3 ± 4.9 µM
O=c1c(O)c(-c2ccc(O)cc2)oc2cc(O)cc(O)c12 [kaempferol],IC50,sEH,31.3 ± 2.6 µM
C[C@H]1[C@H](C)CC[C@]2(C(=O)O)CC[C@]3(C)C(=CC[C@@H]4[C@@]5(C)CC[C@H](O)C(C)(C)[C@@H]5CC[C@]43C)[C@H]12 [ursolic acid],IC50,sEH,84.5 ± 9.5 µM
N[C@@H](Cc1c[nH]c2ccccc12)C(=O)N[C@@H](Cc1c[nH]c2ccccc12)C(=O)N[C@@H](Cc1ccc(O)cc1)C(=O)O [WWY] (H-Trp-Trp-Tyr-OH),inhibition at 100 µM,[1],55.1 ± 2.38%
same,IC50,[1],68.8 ± 7.72 µM
N[C@@H](Cc1c[nH]c2ccccc12)C(=O)N[C@@H](CCC(=O)O)C(=O)N[C@@H](Cc1ccc(O)cc1)C(=O)O [WEY] (H-Trp-Glu-Tyr-OH),inhibition at 100 µM,[1],70 ± 6.25%
same,IC50,[1],55.4 ± 1.55 µM
CC(C)CNC(=O)/C=C/CCc1ccc2c(c1)OCO2 [dihydropiperlonguminine],IC50,sEH; from Scutellaria baicalensis,7.83 ± 0.52 µM
N[C@@H](Cc1ccc(O)cc1)C(=O)N[C@@H](Cc1ccccc1)C(=O)N[C@@H](Cc1c[nH]c2ccccc12)C(=O)O [YFW] (H-Tyr-Phe-Trp-OH),inhibition at 100 µM,[1],57.4 ± 7.62%
same,IC50,[1],96 ± 7.5 µM
C[C@@H]1CC[C@]2(C(=O)O)CC[C@]3(C)C(=CC[C@@H]4[C@@]5(C)CC(=O)[C@H](O)C(C)(C)[C@@H]5CC[C@]43C)[C@@H]2[C@]1(C)O [2-oxopomolic acid],IC50,sEH,11.4 ± 2.7 µM
COc1cc(CNC(=O)CCCCCCC(C)C)ccc1O [dihydrocapsaicin],IC50,sEH; [2],7.3 ± 0.7 µM
N[C@@H](Cc1ccc(O)cc1)C(=O)N[C@@H](Cc1ccccc1)C(=O)N[C@@H](Cc1ccc(O)cc1)C(=O)O [YFY] (H-Tyr-Phe-Tyr-OH),inhibition at 100 µM,[1],53 ± 3.09%
same,IC50,[1],94.1 ± 12.9 µM
CC(C)CNC(=O)/C=C/C=C/c1ccc2c(c1)OCO2 [piperlonguminine],IC50,sEH; from Scutellaria baicalensis,6.06 ± 0.12 µM
COc1cc(CNC(=O)CCCC/C=C/C(C)C)ccc1O [capsaicin],IC50,sEH; [2],5.6 ± 1.2 µM
